From ChEMBL document CHEMBL1201862, “PubChem BioAssay data set” (2004)
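Exposure lasted 48 hours, with cells grown in 96-well plates and compounds tested at five concentrations. GI50 is the concentration that inhibits growth by half.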 Active and inactive are the calls of the source. Rule as the data show it: active = GI50 up to about 1.1 µM and inactive = higher.

Key:
Experiment in all cases: inhibition of tumour cell growth, NCI panel, 48 h
K562 = test system: K562
TK-10 = test system: TK-10
SF-539 = test system: SF-539
KM12 = test system: KM12
U-251 = test system: U-251
M14 = test system: M14
NCI-H460 = test system: NCI-H460
SNB-19 = test system: SNB-19
OVCAR-4 = test system: OVCAR-4
SW-620 = test system: SW-620
CAKI-1 = test system: CAKI-1
UACC-62 = test system: UACC-62
LOX IMVI = test system: LOX IMVI
SK-MEL-5 = test system: SK-MEL-5
SK-MEL-2 = test system: SK-MEL-2
CCRF-CEM = test system: CCRF-CEM
COLO 205 = test system: COLO 205
DMS-114 = test system: DMS-114
IGROV-1 = test system: IGROV-1

## COc1ccc(/C(=C/n2ccnc2)C(=O)c2ccc(OC)c(OC)c2)cc1
K562
  GI50: > 100 µM (inactive)
TK-10
  GI50: > 100 µM (inactive)
SF-539
  GI50: > 100 µM (inactive)
KM12
  GI50: > 100 µM (inactive)
U-251
  GI50: > 100 µM (inactive)
M14
  GI50: > 100 µM (inactive)
NCI-H460
  GI50: > 100 µM (inactive)
SNB-19
  GI50: > 100 µM (inactive)
OVCAR-4
  GI50: > 100 µM (inactive)
SW-620
  GI50: > 100 µM (inactive)
CAKI-1
  GI50: > 100 µM (inactive)
UACC-62
  GI50: 39.3 µM (inactive)
LOX IMVI
  GI50: > 100 µM (inactive)
SK-MEL-5
  GI50: > 100 µM (inactive)
SK-MEL-2
  GI50: > 100 µM (inactive)
CCRF-CEM
  GI50: > 100 µM (inactive)
COLO 205
  GI50: > 100 µM (inactive)
DMS-114
  GI50: > 100 µM (inactive)

## C=CCN1/C(=C2\SC(=S)N(c3ccc(C)cc3)C2=O)Sc2c1ncn(C)c2=O
K562
  GI50: > 100 µM (inactive)
TK-10
  GI50: > 100 µM (inactive)
SF-539
  GI50: 90.8 µM (inactive)
KM12
  GI50: > 100 µM (inactive)
U-251
  GI50: > 100 µM (inactive)
M14
  GI50: > 100 µM (inactive)
NCI-H460
  GI50: > 100 µM (inactive)
IGROV-1
  GI50: > 100 µM (inactive)
SNB-19
  GI50: > 100 µM (inactive)
OVCAR-4
  GI50: 94.2 µM (inactive)
SW-620
  GI50: > 100 µM (inactive)
CAKI-1
  GI50: > 100 µM (inactive)
UACC-62
  GI50: > 100 µM (inactive)
LOX IMVI
  GI50: > 100 µM (inactive)
SK-MEL-5
  GI50: 38.4 µM (inactive)
SK-MEL-2
  GI50: > 100 µM (inactive)
CCRF-CEM
  GI50: > 100 µM (inactive)
COLO 205
  GI50: 96.8 µM (inactive)
DMS-114
  GI50: > 100 µM (inactive)

## O=C1C(c2ccccc2)=C(c2ccccc2)C(c2ccc(Sc3ccc(C4=C(c5ccccc5)C(=O)C(c5ccccc5)=C4c4ccccc4)cc3)cc2)=C1c1ccccc1
K562
  GI50: > 100 µM (inactive)
TK-10
  GI50: > 100 µM (inactive)
SF-539
  GI50: 72.9 µM (inactive)
KM12
  GI50: > 100 µM (inactive)
U-251
  GI50: 48.6 µM (inactive)
M14
  GI50: > 100 µM (inactive)
NCI-H460
  GI50: > 100 µM (inactive)
IGROV-1
  GI50: > 100 µM (inactive)
SNB-19
  GI50: > 100 µM (inactive)
OVCAR-4
  GI50: > 100 µM (inactive)
SW-620
  GI50: > 100 µM (inactive)
CAKI-1
  GI50: > 100 µM (inactive)
UACC-62
  GI50: > 100 µM (inactive)
LOX IMVI
  GI50: > 100 µM (inactive)
SK-MEL-5
  GI50: > 100 µM (inactive)
SK-MEL-2
  GI50: > 100 µM (inactive)
CCRF-CEM
  GI50: > 100 µM (inactive)
COLO 205
  GI50: > 100 µM (inactive)
DMS-114
  GI50: > 100 µM (inactive)

## O=c1[nH]c2ccccc2cc1C(Cl)=C(Cl)Cl
K562
  GI50: > 100 µM (inactive)
TK-10
  GI50: > 100 µM (inactive)
SF-539
  GI50: > 100 µM (inactive)
KM12
  GI50: > 100 µM (inactive)
U-251
  GI50: > 100 µM (inactive)
M14
  GI50: > 100 µM (inactive)
NCI-H460
  GI50: > 100 µM (inactive)
IGROV-1
  GI50: > 100 µM (inactive)
SNB-19
  GI50: > 100 µM (inactive)
OVCAR-4
  GI50: > 100 µM (inactive)
SW-620
  GI50: > 100 µM (inactive)
CAKI-1
  GI50: > 100 µM (inactive)
UACC-62
  GI50: > 100 µM (inactive)
LOX IMVI
  GI50: > 100 µM (inactive)
SK-MEL-2
  GI50: > 100 µM (inactive)
CCRF-CEM
  GI50: > 100 µM (inactive)
COLO 205
  GI50: > 100 µM (inactive)
DMS-114
  GI50: > 100 µM (inactive)

## CCOC(=O)C1=C(Nc2ccc(Cl)c(Cl)c2)OC/C1=N\NS(=O)(=O)c1ccc(C)cc1
K562
  GI50: 21.3 µM (inactive)
TK-10
  GI50: 42.5 µM (inactive)
SF-539
  GI50: 37.5 µM (inactive)
KM12
  GI50: 39.5 µM (inactive)
U-251
  GI50: 66.5 µM (inactive)
M14
  GI50: 73.3 µM (inactive)
NCI-H460
  GI50: 34.3 µM (inactive)
IGROV-1
  GI50: 68.9 µM (inactive)
SNB-19
  GI50: 59 µM (inactive)
OVCAR-4
  GI50: 63.5 µM (inactive)
SW-620
  GI50: > 100 µM (inactive)
CAKI-1
  GI50: 44.2 µM (inactive)
UACC-62
  GI50: 39.4 µM (inactive)
LOX IMVI
  GI50: 9.48 µM (inactive)
SK-MEL-5
  GI50: 42.9 µM (inactive)
SK-MEL-2
  GI50: 29.6 µM (inactive)
CCRF-CEM
  GI50: 27.5 µM (inactive)
COLO 205
  GI50: > 100 µM (inactive)
DMS-114
  GI50: 56.4 µM (inactive)

## CC(=O)N(/N=C\c1ccc([N+](=O)[O-])cc1)c1ccccc1
K562
  GI50: > 100 µM (inactive)
TK-10
  GI50: > 100 µM (inactive)
SF-539
  GI50: > 100 µM (inactive)
KM12
  GI50: > 100 µM (inactive)
U-251
  GI50: > 100 µM (inactive)
M14
  GI50: > 100 µM (inactive)
NCI-H460
  GI50: > 100 µM (inactive)
IGROV-1
  GI50: > 100 µM (inactive)
SNB-19
  GI50: > 100 µM (inactive)
OVCAR-4
  GI50: > 100 µM (inactive)
SW-620
  GI50: > 100 µM (inactive)
CAKI-1
  GI50: > 100 µM (inactive)
UACC-62
  GI50: > 100 µM (inactive)
LOX IMVI
  GI50: > 100 µM (inactive)
SK-MEL-5
  GI50: > 100 µM (inactive)
SK-MEL-2
  GI50: > 100 µM (inactive)
CCRF-CEM
  GI50: > 100 µM (inactive)
COLO 205
  GI50: > 100 µM (inactive)
DMS-114
  GI50: 99.8 µM (inactive)

## Cc1ccc(C)c(NC(=O)C(=O)Nn2c(S)nc3ccccc3c2=O)c1
K562
  GI50: > 100 µM (inactive)
TK-10
  GI50: > 100 µM (inactive)
SF-539
  GI50: > 100 µM (inactive)
KM12
  GI50: > 100 µM (inactive)
U-251
  GI50: > 100 µM (inactive)
M14
  GI50: > 100 µM (inactive)
NCI-H460
  GI50: > 100 µM (inactive)
IGROV-1
  GI50: > 100 µM (inactive)
SNB-19
  GI50: > 100 µM (inactive)
OVCAR-4
  GI50: > 100 µM (inactive)
SW-620
  GI50: > 100 µM (inactive)
CAKI-1
  GI50: > 100 µM (inactive)
UACC-62
  GI50: > 100 µM (inactive)
LOX IMVI
  GI50: > 100 µM (inactive)
SK-MEL-5
  GI50: > 100 µM (inactive)
SK-MEL-2
  GI50: > 100 µM (inactive)
CCRF-CEM
  GI50: > 100 µM (inactive)
COLO 205
  GI50: > 100 µM (inactive)
DMS-114
  GI50: > 100 µM (inactive)

## N/C(=N\O)N/N=C/c1ccc(O)c(O)c1
K562
  GI50: 44.9 µM (inactive)
TK-10
  GI50: > 100 µM (inactive)
SF-539
  GI50: > 100 µM (inactive)
KM12
  GI50: > 100 µM (inactive)
U-251
  GI50: > 100 µM (inactive)
M14
  GI50: > 100 µM (inactive)
NCI-H460
  GI50: > 100 µM (inactive)
IGROV-1
  GI50: > 100 µM (inactive)
SNB-19
  GI50: > 100 µM (inactive)
OVCAR-4
  GI50: > 100 µM (inactive)
SW-620
  GI50: > 100 µM (inactive)
CAKI-1
  GI50: > 100 µM (inactive)
UACC-62
  GI50: > 100 µM (inactive)
LOX IMVI
  GI50: > 100 µM (inactive)
SK-MEL-5
  GI50: > 100 µM (inactive)
SK-MEL-2
  GI50: > 100 µM (inactive)
CCRF-CEM
  GI50: > 100 µM (inactive)
COLO 205
  GI50: > 100 µM (inactive)
DMS-114
  GI50: > 100 µM (inactive)

## O=C1c2cccc([N+](=O)[O-])c2C(=O)c2nccnc21
K562
  GI50: 1.91 µM (inactive)
TK-10
  GI50: 2.06 µM (inactive)
SF-539
  GI50: 1.47 µM (inactive)
U-251
  GI50: 1.4 µM (inactive)
M14
  GI50: 1.57 µM (inactive)
NCI-H460
  GI50: 1.46 µM (inactive)
SNB-19
  GI50: 1.69 µM (inactive)
OVCAR-4
  GI50: 1.42 µM (inactive)
SW-620
  GI50: 1.73 µM (inactive)
CAKI-1
  GI50: 4.86 µM (inactive)
UACC-62
  GI50: 1.32 µM (inactive)
LOX IMVI
  GI50: 1.04 µM (active)
SK-MEL-5
  GI50: 0.25 µM (active)
SK-MEL-2
  GI50: 1.45 µM (inactive)
CCRF-CEM
  GI50: 2.54 µM (inactive)
DMS-114
  GI50: 0.982 µM (active)

## CCOc1ccccc1/N=N/c1c(-c2ccccc2)nn(C(=O)CC(=O)Nc2cccc(Cl)c2)c1-c1ccccc1
K562
  GI50: 32.2 µM (inactive)
TK-10
  GI50: > 100 µM (inactive)
SF-539
  GI50: 62.1 µM (inactive)
KM12
  GI50: 31.8 µM (inactive)
U-251
  GI50: 39.5 µM (inactive)
M14
  GI50: > 100 µM (inactive)
NCI-H460
  GI50: 44.6 µM (inactive)
IGROV-1
  GI50: 68.9 µM (inactive)
SNB-19
  GI50: 68.9 µM (inactive)
OVCAR-4
  GI50: 23.1 µM (inactive)
SW-620
  GI50: > 100 µM (inactive)
CAKI-1
  GI50: 43.1 µM (inactive)
UACC-62
  GI50: 39.6 µM (inactive)
LOX IMVI
  GI50: 35.7 µM (inactive)
SK-MEL-5
  GI50: 52.2 µM (inactive)
SK-MEL-2
  GI50: > 100 µM (inactive)
CCRF-CEM
  GI50: 37.8 µM (inactive)
COLO 205
  GI50: > 100 µM (inactive)
DMS-114
  GI50: 15.9 µM (inactive)

## CCCCCCCCCCCCCCCC/C(C(=O)OC)=C(/O)C(=O)OCC
K562
  GI50: > 100 µM (inactive)
TK-10
  GI50: > 100 µM (inactive)
SF-539
  GI50: > 100 µM (inactive)
KM12
  GI50: > 100 µM (inactive)
U-251
  GI50: > 100 µM (inactive)
M14
  GI50: > 100 µM (inactive)
NCI-H460
  GI50: > 100 µM (inactive)
IGROV-1
  GI50: > 100 µM (inactive)
SNB-19
  GI50: > 100 µM (inactive)
OVCAR-4
  GI50: > 100 µM (inactive)
SW-620
  GI50: > 100 µM (inactive)
CAKI-1
  GI50: > 100 µM (inactive)
UACC-62
  GI50: > 100 µM (inactive)
LOX IMVI
  GI50: > 100 µM (inactive)
SK-MEL-5
  GI50: > 100 µM (inactive)
SK-MEL-2
  GI50: 68.9 µM (inactive)
CCRF-CEM
  GI50: > 100 µM (inactive)
COLO 205
  GI50: > 100 µM (inactive)
DMS-114
  GI50: > 100 µM (inactive)
